Two compounds from US20250003972A1, “A METHOD OF DETERMINING THE PRESENCE OF AN ANALYTE IN A SAMPLE” (Valitacell Limited, priority 2021, published 2025) can be followed below.

In the assay the test system is non-monomer IgG. Nature of the assay: DAOTA fluorescence polarisation (FP) assay: HMWS IgG (non-monomer) spiked into monomer IgG in culture media. It counts as binding. The following applies: cell culture media; FP (mP) signal vs percentage non-monomer. As to the method:
Non-monomer IgG was sourced internally. This was obtained by size exclusion chromatography from Chinese Hamster Ovary (CHO) cell supernatant (this is a naturally occurring non-monomer IgG).
FP readings were made using an BMG Pherastar plate reader (BMG, […], Germany) in black half area NBS plates in a total of 120 ul (Corning, New York, USA).
For DAOTA FP assays, high molecular weight species (HMWS) of IgG (non-monomer) was spiked into monomer IgG in various proportions in 120 ul total of culture media (CD-CHO, ThermoFisher, UK) at a constant at a concentration of 200 mg/L. 0.1 ug of an N′-propyl, N-propyl derivative of diazaoxatriangulenium (N′PNP-DAOTA) was added, and the polarization signal was measured after 5 minutes incubation in the dark.
On the technique in general: Fluorescence polarisation rises when a labelled molecule tumbles more slowly, as on binding a larger partner.

Consider `CCCn1c2cccc3oc4cccc5c4[c+](c32)c2c1cccc2n5CCC` [N′PNP-DAOTA, N′-propyl, N-propyl derivative of diazaoxatriangulenium], for which the “binding to non-monomer IgG / IgG aggregates (FP polarisation signal)” value was “binds to non-monomer IgG”. For “N-butanoic acid aza-di-oxa-triangulenium [N-Phenyl-ADOTA]” the value was “did not bind to IgG aggregates”.
